In PubChem BioAssay (NCI):
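Each compound was tested at five concentrations against cells in 96-well plates for 48 hours. Abbreviation: GI50, concentration required for 50% inhibition of growth. TGI: concentration producing complete growth inhibition.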

Legend:
Test in all cases: NCI tumour cell line growth inhibition, 48 h
HCC-2998 colon = system: HCC-2998 colon
SK-OV-3 ovarian = system: SK-OV-3 ovarian
MCF7 breast = system: MCF7 breast
EKVX NSCLC = system: EKVX NSCLC
SNB-75 CNS = system: SNB-75 CNS
HL-60(TB) leukemia = system: HL-60(TB) leukemia
PC-3 prostate = system: PC-3 prostate
M14 melanoma = system: M14 melanoma
786-0 renal = system: 786-0 renal
IGROV1 ovarian = system: IGROV1 ovarian
NCI-H23 lung = system: NCI-H23 lung
SR leukemia = system: SR leukemia
KM12 colon = system: KM12 colon
UACC-257 melanoma = system: UACC-257 melanoma
SF-539 CNS = system: SF-539 CNS
OVCAR-5 ovarian = system: OVCAR-5 ovarian
DU-145 prostate = system: DU-145 prostate
TK-10 renal = system: TK-10 renal
RPMI-8226 leukemia = system: RPMI-8226 leukemia
HOP-62 NSCLC = system: HOP-62 NSCLC
RXF 393 renal = system: RXF 393 renal
NCI/ADR-RES ovarian = system: NCI/ADR-RES ovarian
SK-MEL-2 melanoma = system: SK-MEL-2 melanoma
MDA-N = system: MDA-N
CAKI-1 renal = system: CAKI-1 renal
NCI-H226 lung = system: NCI-H226 lung
NCI-H522 lung = system: NCI-H522 lung
SK-MEL-28 melanoma = system: SK-MEL-28 melanoma
HOP-92 NSCLC = system: HOP-92 NSCLC
SK-MEL-5 melanoma = system: SK-MEL-5 melanoma
SN12C renal = system: SN12C renal
OVCAR-3 ovarian = system: OVCAR-3 ovarian
BT-549 breast = system: BT-549 breast
A549 NSCLC = system: A549 NSCLC
MALME-3M melanoma = system: MALME-3M melanoma
HT29 colon = system: HT29 colon
OVCAR-8 ovarian = system: OVCAR-8 ovarian
COLO 205 colon = system: COLO 205 colon
ACHN renal = system: ACHN renal
NCI-H460 lung = system: NCI-H460 lung
CCRF-CEM leukemia = system: CCRF-CEM leukemia
SF-295 CNS = system: SF-295 CNS
HCT-116 colon = system: HCT-116 colon
UACC-62 melanoma = system: UACC-62 melanoma
HCT-15 colon = system: HCT-15 colon
U251 CNS = system: U251 CNS
UO-31 renal = system: UO-31 renal
OVCAR-4 ovarian = system: OVCAR-4 ovarian
SF-268 CNS = system: SF-268 CNS
SNB-19 CNS = system: SNB-19 CNS
SW-620 colon = system: SW-620 colon
K-562 leukemia = system: K-562 leukemia
MOLT-4 leukemia = system: MOLT-4 leukemia
MDA-MB-231 breast = system: MDA-MB-231 breast
HS 578T breast = system: HS 578T breast
T-47D breast = system: T-47D breast
LOX IMVI melanoma = system: LOX IMVI melanoma
A498 renal = system: A498 renal
MDA-MB-435 = system: MDA-MB-435

Compound: N#C/C(=C\c1cc(Br)c(O)c(Br)c1)c1ccccn1
- TGI (HCC-2998 colon): > 100 µM
- TGI (SK-OV-3 ovarian): > 100 µM
- TGI (MCF7 breast): > 100 µM
- TGI (EKVX NSCLC): > 100 µM
- TGI (SNB-75 CNS): > 100 µM
- TGI (HL-60(TB) leukemia): > 100 µM
- TGI (PC-3 prostate): > 100 µM
- TGI (M14 melanoma): > 100 µM
- TGI (786-0 renal): > 100 µM
- TGI (IGROV1 ovarian): > 100 µM
- TGI (NCI-H23 lung): > 100 µM
- TGI (SR leukemia): > 100 µM
- TGI (KM12 colon): > 100 µM
- TGI (UACC-257 melanoma): > 100 µM
- TGI (SF-539 CNS): > 100 µM
- TGI (OVCAR-5 ovarian): > 100 µM
- TGI (DU-145 prostate): > 100 µM
- TGI (TK-10 renal): > 100 µM
- TGI (RPMI-8226 leukemia): > 100 µM
- TGI (HOP-62 NSCLC): > 100 µM
- TGI (RXF 393 renal): > 100 µM
- TGI (NCI/ADR-RES ovarian): > 100 µM
- TGI (SK-MEL-2 melanoma): > 100 µM
- TGI (MDA-N): > 100 µM
- TGI (CAKI-1 renal): > 100 µM
- TGI (NCI-H226 lung): > 100 µM
- TGI (NCI-H522 lung): > 100 µM
- TGI (SK-MEL-28 melanoma): > 100 µM
- TGI (HOP-92 NSCLC): 46.2 µM
- TGI (SK-MEL-5 melanoma): > 100 µM
- TGI (SN12C renal): > 100 µM
- TGI (OVCAR-3 ovarian): > 100 µM
- TGI (BT-549 breast): > 100 µM
- TGI (A549 NSCLC): > 100 µM
- TGI (MALME-3M melanoma): 68.3 µM
- TGI (HT29 colon): > 100 µM
- TGI (OVCAR-8 ovarian): > 100 µM
- TGI (COLO 205 colon): > 100 µM
- TGI (ACHN renal): > 100 µM
- TGI (NCI-H460 lung): > 100 µM
- TGI (CCRF-CEM leukemia): > 100 µM
- TGI (SF-295 CNS): > 100 µM
- TGI (HCT-116 colon): > 100 µM
- TGI (UACC-62 melanoma): > 100 µM
- TGI (HCT-15 colon): > 100 µM
- TGI (U251 CNS): 60 µM
- TGI (UO-31 renal): > 100 µM
- TGI (OVCAR-4 ovarian): > 100 µM
- TGI (SF-268 CNS): > 100 µM
- TGI (SNB-19 CNS): > 100 µM
- TGI (SW-620 colon): > 100 µM
- TGI (K-562 leukemia): > 100 µM
- TGI (MOLT-4 leukemia): > 100 µM

Compound: O=C(NC1CCC(Br)CC1)C1CCCC(S(=O)(=O)NC2CCCCC2)C1 (centres undefined)
- GI50 (HCC-2998 colon): 13 µM
- TGI (HCC-2998 colon): 47.3 µM
- GI50 (SK-OV-3 ovarian): 14.1 µM
- TGI (SK-OV-3 ovarian): 47.3 µM
- GI50 (MCF7 breast): 9.31 µM
- TGI (MCF7 breast): 63.8 µM
- GI50 (EKVX NSCLC): 7.81 µM
- TGI (EKVX NSCLC): 32.9 µM
- GI50 (SNB-75 CNS): 17 µM
- TGI (SNB-75 CNS): 69.5 µM
- GI50 (HL-60(TB) leukemia): 8.6 µM
- TGI (HL-60(TB) leukemia): 82.2 µM
- GI50 (PC-3 prostate): 8.47 µM
- TGI (PC-3 prostate): 37.1 µM
- GI50 (M14 melanoma): 9.42 µM
- TGI (M14 melanoma): 39.6 µM
- GI50 (786-0 renal): 19.3 µM
- TGI (786-0 renal): 55 µM
- GI50 (IGROV1 ovarian): 9.78 µM
- TGI (IGROV1 ovarian): 46 µM
- GI50 (NCI-H23 lung): 7.88 µM
- TGI (NCI-H23 lung): 35.3 µM
- GI50 (SR leukemia): 18.8 µM
- TGI (SR leukemia): 129 µM
- GI50 (KM12 colon): 13.3 µM
- TGI (KM12 colon): 47.8 µM
- GI50 (UACC-257 melanoma): 9.32 µM
- TGI (UACC-257 melanoma): 38.4 µM
- GI50 (SF-539 CNS): 13.5 µM
- TGI (SF-539 CNS): 46.3 µM
- GI50 (OVCAR-5 ovarian): 14.2 µM
- TGI (OVCAR-5 ovarian): 48.8 µM
- GI50 (MDA-MB-231 breast): 13.5 µM
- TGI (MDA-MB-231 breast): 55.8 µM
- GI50 (DU-145 prostate): 16.1 µM
- TGI (DU-145 prostate): 47.7 µM
- GI50 (TK-10 renal): 15 µM
- TGI (TK-10 renal): 49.9 µM
- GI50 (RPMI-8226 leukemia): 9.79 µM
- TGI (RPMI-8226 leukemia): 58 µM
- GI50 (HOP-62 NSCLC): 24 µM
- TGI (HOP-62 NSCLC): 59.8 µM
- GI50 (RXF 393 renal): 11.8 µM
- TGI (RXF 393 renal): 48.1 µM
- GI50 (NCI/ADR-RES ovarian): 8.36 µM
- TGI (NCI/ADR-RES ovarian): 37.7 µM
- GI50 (SK-MEL-2 melanoma): 11.5 µM
- TGI (SK-MEL-2 melanoma): 46.4 µM
- GI50 (CAKI-1 renal): 10.2 µM
- TGI (CAKI-1 renal): 42.5 µM
- GI50 (NCI-H226 lung): 12 µM
- TGI (NCI-H226 lung): 109 µM
- GI50 (HS 578T breast): 16.8 µM
- TGI (HS 578T breast): 87.2 µM
- GI50 (NCI-H522 lung): 8 µM
- TGI (NCI-H522 lung): 38.1 µM
- GI50 (SK-MEL-28 melanoma): 9.22 µM
- TGI (SK-MEL-28 melanoma): 36.8 µM
- GI50 (HOP-92 NSCLC): 4.7 µM
- TGI (HOP-92 NSCLC): 23 µM
- GI50 (SK-MEL-5 melanoma): 4.96 µM
- TGI (SK-MEL-5 melanoma): 11.6 µM
- GI50 (SN12C renal): 9.29 µM
- TGI (SN12C renal): 39.8 µM
- GI50 (T-47D breast): 6.05 µM
- TGI (T-47D breast): 37 µM
- GI50 (OVCAR-3 ovarian): 9.83 µM
- TGI (OVCAR-3 ovarian): 40 µM
- GI50 (BT-549 breast): 8.34 µM
- TGI (BT-549 breast): 35.4 µM
- GI50 (A549 NSCLC): 9.81 µM
- TGI (A549 NSCLC): 44.8 µM
- GI50 (LOX IMVI melanoma): 10.7 µM
- TGI (LOX IMVI melanoma): 40.4 µM
- GI50 (MALME-3M melanoma): 6.47 µM
- TGI (MALME-3M melanoma): 39.3 µM
- GI50 (HT29 colon): 17.7 µM
- TGI (HT29 colon): 55 µM
- GI50 (OVCAR-8 ovarian): 12.8 µM
- TGI (OVCAR-8 ovarian): 59 µM
- GI50 (COLO 205 colon): 14 µM
- TGI (COLO 205 colon): 51.5 µM
- GI50 (A498 renal): 3.7 µM
- TGI (A498 renal): 21.7 µM
- GI50 (ACHN renal): 9.9 µM
- TGI (ACHN renal): 39.4 µM
- GI50 (NCI-H460 lung): 11.4 µM
- TGI (NCI-H460 lung): 48 µM
- GI50 (CCRF-CEM leukemia): 0.233 µM
- TGI (CCRF-CEM leukemia): 26.3 µM
- GI50 (SF-295 CNS): 8.04 µM
- TGI (SF-295 CNS): 28.4 µM
- GI50 (HCT-116 colon): 9.15 µM
- TGI (HCT-116 colon): 38 µM
- GI50 (UACC-62 melanoma): 7.38 µM
- TGI (UACC-62 melanoma): 35.3 µM
- GI50 (HCT-15 colon): 11.5 µM
- TGI (HCT-15 colon): 46.9 µM
- GI50 (U251 CNS): 10.9 µM
- TGI (U251 CNS): 43 µM
- GI50 (UO-31 renal): 6.26 µM
- TGI (UO-31 renal): 33.1 µM
- GI50 (OVCAR-4 ovarian): 8.19 µM
- TGI (OVCAR-4 ovarian): 44.1 µM
- GI50 (SF-268 CNS): 12.6 µM
- TGI (SF-268 CNS): 56 µM
- GI50 (SNB-19 CNS): 11.1 µM
- TGI (SNB-19 CNS): 42.7 µM
- GI50 (SW-620 colon): 13.9 µM
- TGI (SW-620 colon): 53.7 µM
- GI50 (MDA-MB-435): 10.6 µM
- TGI (MDA-MB-435): 42.3 µM
- GI50 (K-562 leukemia): 7.52 µM
- TGI (K-562 leukemia): 250 µM
- GI50 (MOLT-4 leukemia): 8.91 µM
- TGI (MOLT-4 leukemia): 79.3 µM
